According to publication PMC3331929 (Antiviral Research, 2012):
Like-named read-outs stand apart in the source and are kept apart here.

Columns and labels:
Format in all cases: biochemical
WNV NS2B/NS3pro [1] = target: T1, WNV NS2B/NS3pro (West Nile virus, UniProt Q9Q6P4); conditions: read-out: IC50 (μM) a; tri-peptide substrate Boc-GKR-AMC, inhibitor 0–40 μM
WNV NS2B/NS3pro [2] = target: T1, WNV NS2B/NS3pro; conditions: read-out: IC50 (μM) b; tetra-peptide substrate Bz-Nle-KRR-AMC
WNV NS2B/NS3pro [3] = target: T1, WNV NS2B/NS3pro; experiment: In vitro protease assay, percent inhibition at a fixed inhibitor concentration; conditions: aprotinin as positive control, final concentration 2–10 μM

T1 sequence (Q9Q6P4 1506-1683): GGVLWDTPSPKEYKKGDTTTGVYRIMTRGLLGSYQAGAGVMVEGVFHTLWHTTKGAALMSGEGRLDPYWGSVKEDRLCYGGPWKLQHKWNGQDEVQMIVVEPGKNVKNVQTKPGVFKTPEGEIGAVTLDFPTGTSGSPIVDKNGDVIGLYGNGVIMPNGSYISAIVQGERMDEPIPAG
T1 sequence (Q9Q6P4 1428-1467): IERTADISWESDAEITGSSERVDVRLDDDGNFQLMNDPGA

Compound	IC50 (WNV NS2B/NS3pro [1])	IC50 (WNV NS2B/NS3pro [2])	inhibition of WNV NS2B-NS3pro, positive control (WNV NS2B/NS3pro [3])
Oc1c(C(Nc2nccs2)c2ccccc2)ccc2cccnc12 (stereo not drawn) [compound 23]	9.85 ± 0.34 µM	12.9 ± 0.54 µM	
aprotinin			100%
